Values quoted from earlier work, collected in patent US20250319084A1, “ENDOCRINE THERAPY AND ABEMACICLIB COMBINATION FOR THE ADJUVANT TREATMENT OF NODE-POSITIVE, EARLY STAGE, HORMONE RECEPTOR-POSITIVE, HUMAN EPIDERMAL GROWTH FACTOR RECEPTOR 2-NEGATIVE BREAST CANCER” (Eli Lilly and Company, priority 2017, published 2025).
Where two headings read alike, the source gives them in different places.

How the values were obtained:
[1] = tested on: human cancer xenografts, including breast cancer; conditions: multiple murine xenograft models for human cancer
[2] = tested on: 46 breast cancer cell lines; conditions: panel of 46 breast cancer cell lines representing known molecular subgroups
[3] = tested on: early neoadjuvant breast cancer; conditions: 150 mg twice daily, as monotherapy and in combination with anastrozole
[4] = tested on: HR+metastatic breast cancer; conditions: MONARCH 1 Phase 2, single agent, 200-mg dose twice daily, heavily pretreated HR+ metastatic breast cancer refractory to endocrine therapy
[5] = nonclinical species
[6] = tested on: HR+metastatic breast cancer; conditions: JPBA Phase 1b, continuously dosed single agent, across dose levels, heavily pretreated HR+ metastatic breast cancer refractory to endocrine therapy
[7] = tested on: HR+ early breast cancer involving axillary lymph nodes

Compound | tumor growth inhibition [1] | growth inhibition in vitro (sensitivity by subgroup) [2] | safety profile [3] | reduction of tumor cell proliferation marker (Ki67 index) ([3]; versus anastrozole alone) | response rate [4] | tolerability (HR+mBC; JPBH Phase 1b, combined with standard endocrine therapies) | most common adverse events (HR+mBC; JPBH, abemaciclib plus endocrine therapy, predominantly low-grade severity, appear dose-dependent) | toxicity profile [5] | response rate [6] | 4-year disease-free survival ([7]; BIG 1-98, patients with higher Ki67 values (>11%)) | 4-year disease-free survival ([7]; BIG 1-98, patients with low (≤11%) Ki67 levels at baseline)
CCN1CCN(Cc2ccc(Nc3ncc(F)c(-c4cc(F)c5nc(C)n(C(C)C)c5c4)n3)nc2)CC1 [Abemaciclib, [5-(4-ethyl-piperazin-1-ylmethyl)-pyridin-2-yl]-[5-fluoro-4-(7-fluoro-3-isopropyl-2-methyl-3H-benzoimidazol-5-yl)-pyrimidin-2-yl]-amine] | significantly inhibit tumor growth | sensitivity to CDK4 and CDK6 inhibition is greater in ER+breast cancers with luminal histology | acceptable safety profile | to a significantly greater extent than anastrozole alone | 19.7% | tolerable | fatigue, nausea, diarrhea, leukopenia, lymphopenia, neutropenia, and anemia | acceptable toxicity profile | 33.3% |  | 
N#Cc1ccc(C(c2ccc(C#N)cc2)n2cncn2)cc1 [letrozole] |  |  |  |  |  |  |  |  |  | 85% | 93%
